Measurements published in patent US9730949B2, “Angiotensin converting enzyme inhibitors for treating optic neuropathy or congenital optic atrophy” (priority 2012, dated 2017).

Columns and labels:
Type in all cases: in vivo, human
[1] = tested on: optic neuropathy or congenital optic atrophy; experiment: Other ACE inhibitors in patients with the same optic neuropathy or congenital optic atrophy as in Examples 1 to 5; conditions: patients as in Examples 1 to 5, similar procedures; present tense, no data
Protocol: Fosinoprilate, trandolaprilate, moexiprilate, quinaprilate, enalaprilate, perindoprilate and benazeprilate, as well as captopril and lisinopril are also tested in patients having the same optic neuropathy or congenital optic atrophy as in Examples 1 to 5 using similar procedures.

[2] = tested on: toxication by ingestion of methyl alcohol; experiment: Visual acuity after treatment in patients with toxication by ingestion of methyl alcohol
Protocol: 2 patients (SR and WW) suffering from toxication by ingestion of methyl alcohol has bad visual acuity. FIG. 6 is a fluoangiography of SR prior to treatment. FIG. 7 is an optical coherence tomography scan of SR before treatment.
One patient was administered 2% (w/v) ramprilate in an eye drop formulation twice a day for 3 months, while the other patient was administered 2% (w/v) ramprilate in via an intravitreal injection ramiprilate in a quantity of 0.1 to 0.2 ml, which was injected once every 15 days for a total of three injections.

[3] = tested on: Leber's optic neuropathy; experiment: Visual acuity after treatment in patients with Leber's optic neuropathy; conditions: intravitreal 2% (w/v), 0.1 to 0.2 ml, once every 15 days, three injections
Protocol: Patient two has Leber's optic neuropathy with a visual acuity of 1/20 in the right eye and zero in the left eye prior to treatment.
An intraocular injection (intravitreal) of 2% (w/v) ramiprilate in a quantify of 0.1 to 0.2 ml, which was injected once every 15 days for a total of three injections. The visual acuity was measured after this treatment. The results of 2/10 in the right eye and 1/20 in the left eye were achieved,
Patient one has Leber's optic neuropathy and had only bright perceptions in two eyes. Visual acuity was measured prior to treatment.
An intraocular injection (intravitreal) of 2% (w/v) ramiprilate in a quantity of 0.1 to 0.2 ml, which was infected once every 15 days for a total of three injections. The visual acuity was measured after this treatment. The visual acuity was 2/10 for both eyes.

[4] = tested on: central artery occlusion of the retina; experiment: Visual acuity after treatment in patients with central artery occlusion of the retina
Protocol: FIG. 5 is a fundus photograph of patient four before treatment.
One was administered 2% (w/v) ramprilate in an eye drop formulation twice a day for 3 months, while the other was administered 2% (w/v) ramprilate in via an intravitreal injection ramiprilate in a quantity of 0.1 to 0.2 ml, which was injected once every 15 days for a total of three injections.

[5] = tested on: dominant recessive congenital optic atrophy; experiment: Visual acuity after treatment in patients with dominant recessive congenital optic atrophy; conditions: 2 patients; eye drops 2% (w/v), 2 times per day for 3 months
Protocol: 2 patients that have dominant recessive congenital optic atrophy had bad visual acuity.
These 2 patients were treated with eye drops containing 2% (w/v) ramiprilate 2 times per day for a duration of 3 months.

[6] = tested on: bilateral asymmetric anterior optic neuropathy ischemia; experiment: Visual acuity after treatment in a patient with anterior optic neuropathy ischemia; conditions: patient three; intravitreal 2% (w/v), 0.1 to 0.2 ml, once every 15 days, three injections; 1/10 in both eyes prior to treatment
Protocol: FIGS. 3 and 4 show a fluoangiography of MM before treatment.
MM was administered an intravitreal injection of 2% (w/v) ramiprilate in a quantify of 0.1 to 0.2 ml, which was injected once every 15 days for a total of three injections. The visual acuity was then taken and was 5/10 for both eyes.

## C[C@H](N[C@@H](CCc1ccccc1)C(=O)O)C(=O)N1[C@H](C(=O)O)C[C@H]2CCCC[C@@H]21 [trandolaprilate]
[1]
  visual acuity: improvement in visual acuity

## COc1cc2c(cc1OC)CN(C(=O)[C@H](C)N[C@@H](CCc1ccccc1)C(=O)O)[C@H](C(=O)O)C2 [moexiprilate]
[1]
  visual acuity: improvement in visual acuity

## C[C@H](N[C@@H](CCc1ccccc1)C(=O)O)C(=O)N1CCC[C@H]1C(=O)O [enalaprilate]
[1]
  visual acuity: improvement in visual acuity

## O=C(O)[C@@H]1C[C@@H](C2CCCCC2)CN1C(=O)CP(=O)(O)CCCCc1ccccc1 [Fosinoprilate, fosinoprilate]
[1]
  visual acuity: improvement in visual acuity

## NCCCC[C@H](N[C@@H](CCc1ccccc1)C(=O)O)C(=O)N1CCC[C@H]1C(=O)O [lisinopril]
[1]
  visual acuity: improvement in visual acuity

## CCC[C@H](N[C@@H](C)C(=O)N1[C@H](C(=O)O)C[C@@H]2CCCC[C@@H]21)C(=O)O [perindoprilate]
[1]
  visual acuity: improvement in visual acuity

## O=C(O)CN1C(=O)[C@@H](N[C@@H](CCc2ccccc2)C(=O)O)CCc2ccccc21 [benazeprilate]
[1]
  visual acuity: improvement in visual acuity

## C[C@H](N[C@@H](CCc1ccccc1)C(=O)O)C(=O)N1Cc2ccccc2C[C@H]1C(=O)O [quinaprilate]
[1]
  visual acuity: improvement in visual acuity

## CC(NC(CCc1ccccc1)C(=O)O)C(=O)N1C(C(=O)O)CC2CCCC21 (stereo not drawn) [ramiprilate]
[2]; one patient (beta), eye drop formulation 2% (w/v) twice a day for 3 months
  vision as indicated by visual acuity: improvement in vision
[2]; other patient (beta), intravitreal 2% (w/v), 0.1 to 0.2 ml, once every 15 days, three injections
  vision as indicated by visual acuity: improvement in vision
[3]; patient one, only bright perceptions in two eyes before
  visual acuity, both eyes, after treatment: 2/10
[3]; patient two, 1/20 prior to treatment
  visual acuity, right eye, after treatment: 2/10
[3]; patient two, zero prior to treatment
  visual acuity, left eye, after treatment: 1/20
[4]; one patient (alpha), eye drop formulation 2% (w/v) twice a day for 3 months
  vision as indicated by visual acuity: improvement in vision
[4]; other patient (alpha), intravitreal 2% (w/v), 0.1 to 0.2 ml, once every 15 days, three injections
  vision as indicated by visual acuity: improvement in vision
[5]
  vision as indicated by visual acuity: greatly improved
[6]
  visual acuity, both eyes, after treatment: 5/10

## C[C@H](CS)C(=O)N1CCC[C@H]1C(=O)O [captopril]
[1]
  visual acuity: improvement in visual acuity
